Measured values published in PubChem BioAssay AID588650 (The Scripps Research Institute Molecular Screening Center, 2011).

Target: Epidermal growth factor receptor (Homo sapiens) (UniProt P00533)
Assay: phospho-EGFR protein level reduction, late-stage follow-up, counter-screen for KLF5 inhibitor project, HCT116 cells, chemiluminescent western blot, powder samples (AID 588650)
Conditions: 24 h, at 10 µM, hits give high values

Chain of Epidermal growth factor receptor (Homo sapiens) (P00533 whole entry, looked up): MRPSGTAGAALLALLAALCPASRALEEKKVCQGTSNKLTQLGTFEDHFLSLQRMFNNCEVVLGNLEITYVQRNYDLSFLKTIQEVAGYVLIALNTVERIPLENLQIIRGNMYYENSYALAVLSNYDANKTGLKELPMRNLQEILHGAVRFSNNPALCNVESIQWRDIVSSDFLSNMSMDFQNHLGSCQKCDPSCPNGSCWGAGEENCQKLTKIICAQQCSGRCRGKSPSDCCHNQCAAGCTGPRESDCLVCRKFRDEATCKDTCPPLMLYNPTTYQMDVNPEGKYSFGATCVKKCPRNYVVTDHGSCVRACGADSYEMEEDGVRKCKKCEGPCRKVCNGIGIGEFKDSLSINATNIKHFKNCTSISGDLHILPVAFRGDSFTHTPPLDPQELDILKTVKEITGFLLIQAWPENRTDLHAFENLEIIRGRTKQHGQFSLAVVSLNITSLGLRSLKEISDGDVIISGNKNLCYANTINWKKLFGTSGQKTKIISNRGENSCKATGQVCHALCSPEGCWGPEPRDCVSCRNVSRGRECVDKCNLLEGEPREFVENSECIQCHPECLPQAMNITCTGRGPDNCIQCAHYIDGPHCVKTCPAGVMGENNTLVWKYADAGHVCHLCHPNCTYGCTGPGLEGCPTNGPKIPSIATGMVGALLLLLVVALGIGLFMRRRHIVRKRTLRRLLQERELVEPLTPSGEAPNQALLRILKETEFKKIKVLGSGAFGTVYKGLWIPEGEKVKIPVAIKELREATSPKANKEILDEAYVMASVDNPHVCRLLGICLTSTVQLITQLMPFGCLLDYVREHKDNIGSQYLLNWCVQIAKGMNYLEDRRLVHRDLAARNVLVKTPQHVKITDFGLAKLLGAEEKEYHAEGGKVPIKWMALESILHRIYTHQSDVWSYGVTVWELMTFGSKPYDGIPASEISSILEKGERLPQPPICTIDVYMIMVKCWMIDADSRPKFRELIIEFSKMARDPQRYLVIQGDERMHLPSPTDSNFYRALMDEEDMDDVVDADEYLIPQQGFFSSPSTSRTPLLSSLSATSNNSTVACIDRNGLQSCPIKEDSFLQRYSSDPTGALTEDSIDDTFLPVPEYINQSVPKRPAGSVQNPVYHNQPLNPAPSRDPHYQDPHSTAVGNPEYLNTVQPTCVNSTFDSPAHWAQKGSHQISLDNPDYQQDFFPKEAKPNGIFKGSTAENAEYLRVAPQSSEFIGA

| inhibition [%] | SMILES |
| --- | --- |
| -254 | CN(C(=O)CNC(=O)/C=C/c1cccc(Cl)c1)C1CCS(=O)(=O)CC1 |
| -64.9 | CN(C(=O)COC(=O)/C=C/c1cccc([N+](=O)[O-])c1)C1CCS(=O)(=O)C1 (stereo not drawn) |
| -53.2 | CN(C(=O)CNC(=O)/C=C/c1cccc(Cl)c1)C1CCS(=O)(=O)C1 (stereo not drawn) |
